Activity calls are given as the source filed them. The calls are words filed in the database; no cut-off is given here.
Legend:
[1] = Inhibition of invasion of mouse 26-L5 cells; type: functional
Mus musculus = organism: Mus musculus; assay: Growth inhibition of mouse 26-L5 cells at 3 ug/ml by WST1 method; type: functional

| SMILES | IC50 [1] [nM] | Activity (Mus musculus) |
| --- | --- | --- |
| Cc1c(O)c(CCC(C)C)c2c(c1O)C(=O)c1cccc(O)c1C2=O [LUPINACIDIN A] | 210 | Active |
| CCCCc1c(O)c(C)c(O)c2c1C(=O)c1c(O)cccc1C2=O [LUPINACIDIN B] | 920 | inactive |

— ChEMBL document CHEMBL1145357, “Antitumor anthraquinones from an endophytic actinomycete Micromonospora lupini sp. nov” (Bioorg Med Chem Lett, 2007)
